Calls of active or inactive are those of the source.
How the values were obtained:
[1] = target: FAD-linked sulfhydryl oxidase ALR (Homo sapiens, UniProt P55789); experiment: ALR-catalysed DTT oxidation blockers – biochemical, H2O2 detection, luminescence, cherry-pick, dose response (AID 493248)
Large T antigen = Large T antigen (Simian virus 40, UniProt P03070); format: functional, Betapolyomavirus macacae;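 note: Confirmatory-stage PubChem screen for compounds that inhibit SV40 T antigen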
[2] = target: T1, Heat shock factor protein 1 (Mus musculus, UniProt P38532); experiment: decrease of HSF1-responsive luciferase luminescence – cell-based, NIH3T3, dose retest, confirmation (AID 2382); format: functional;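 note: NIH3T3 fibroblasts with HSF1-driven luciferase reporter stressed by proteasome inhibitor MG132; luminescence from HSF1-driven luciferase expression after 8 hours of MG132 stress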
T1 sequence (P38532 whole entry): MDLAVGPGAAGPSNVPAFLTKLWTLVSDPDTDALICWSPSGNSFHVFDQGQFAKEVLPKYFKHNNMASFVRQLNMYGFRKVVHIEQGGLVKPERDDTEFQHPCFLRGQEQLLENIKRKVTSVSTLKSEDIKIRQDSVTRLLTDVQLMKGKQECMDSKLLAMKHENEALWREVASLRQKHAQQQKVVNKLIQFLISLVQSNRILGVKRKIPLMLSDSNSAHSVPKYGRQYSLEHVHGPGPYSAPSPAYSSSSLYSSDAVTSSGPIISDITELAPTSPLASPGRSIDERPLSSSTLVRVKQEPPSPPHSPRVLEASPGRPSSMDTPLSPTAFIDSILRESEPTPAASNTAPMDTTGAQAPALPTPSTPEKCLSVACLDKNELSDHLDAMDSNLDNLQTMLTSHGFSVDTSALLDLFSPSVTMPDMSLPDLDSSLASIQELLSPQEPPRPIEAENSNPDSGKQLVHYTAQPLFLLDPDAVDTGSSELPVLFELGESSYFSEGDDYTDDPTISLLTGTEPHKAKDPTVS

Streptococcus = experiment: GAS UMAA2166 growth inhibition – luminescence, BacTiterGlo, counter-screen for streptokinase expression inhibitor project, dose response (AID 1915); format: functional, organism-based;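 note: potency for reduction of bacterial viability or growth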
[3] = NIH3T3 cell viability loss – ATP luminescence, mouse fibroblasts, counter-screen, dose response (AID 2010); format: functional, cell-based;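 note: cells exposed to compound for about 90 hours before reading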
H9c2 = experiment: cells; format: functional, cell-based; conditions: Rattus norvegicus, H9c2, Myocardium;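 note: confirmatory concentration-response retest of ultra-high-throughput screening hits for modulation of myocardial damage; cell death induced by hydrogen peroxide oxidative stress; compound pretreatment for 60 min then peroxide exposure for 2 h; potency is for protecting the cells against peroxide damage rather than for killing them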
[4] = Trypanosoma cruzi growth suppression in host cells – NIH3T3 host cells, beta-gal luminescence, confirmation (AID 2044); format: functional, cell-based;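 note: intracellular parasites grown in NIH/3T3 mouse fibroblasts as host cells; luminescent beta-galactosidase reporter signal from transgenic T. cruzi replicating inside host cells; inhibitors lower the luminescence signal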
[5] = test system: Streptococcus sp. 'group A'; experiment: Streptococcus pyogenes SK(-)GAS viability under kanamycin – luminescence, BacTiterGlo, confirmation, counter-screen for streptokinase expression inhibitor project, dose response (AID 1900); format: functional, organism-based
Streptokinase A = target: T2, Streptokinase A (Streptococcus pyogenes serotype M1, UniProt P10520); experiment: viability-normalized secreted streptokinase activity reduction – plasminogen activation absorbance, OD405, dose response (AID 1914); format: functional, Streptococcus pyogenes M1 GAS;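 note: secreted streptokinase activity via plasminogen activation per viability signal from cell pellet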
T2 sequence (P10520 whole entry): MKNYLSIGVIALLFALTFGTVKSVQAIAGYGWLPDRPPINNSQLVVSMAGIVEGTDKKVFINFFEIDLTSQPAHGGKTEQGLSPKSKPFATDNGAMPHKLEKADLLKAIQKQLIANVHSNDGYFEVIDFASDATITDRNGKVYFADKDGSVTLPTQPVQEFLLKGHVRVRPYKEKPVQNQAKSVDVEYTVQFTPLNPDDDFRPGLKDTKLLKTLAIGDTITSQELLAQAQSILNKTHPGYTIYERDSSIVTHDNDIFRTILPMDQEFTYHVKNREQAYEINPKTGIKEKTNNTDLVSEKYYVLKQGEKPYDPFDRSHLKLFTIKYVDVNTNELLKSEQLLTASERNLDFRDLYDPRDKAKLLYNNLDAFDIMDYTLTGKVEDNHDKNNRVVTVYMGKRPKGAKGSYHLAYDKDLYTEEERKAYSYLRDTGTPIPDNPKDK

[6] = fluconazole-exposed Candida albicans growth modulators – fluorescence, retest, confirmation (AID 2467); format: functional, cell-based
[7] = NIH-3T3 fibroblast cytotoxicity, dose response, cytotoxicity control, cell-based, fluorescence, Alamar Blue, secondary assay (AID 2327); format: functional;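 note: NIH-3T3 mouse fibroblasts cultured with fluconazole at 8 µg/mL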
[8] = target: Glyceraldehyde-3-phosphate dehydrogenase (Homo sapiens, UniProt P04406)
[9] = target: T1, Heat shock factor protein 1; experiment: enhancement of HSF1-driven luciferase signal – cell-based, NIH3T3, luminescence, dose retest, confirmation (AID 435004); format: functional;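 note: stress induced by proteasome inhibitor MG132 added 30 min after compound; luciferase reporter driven by HSF1 response element in NIH3T3 cells; actives raise luminescence as potentiators of the MG132 stress response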
Protein skinhead-1 = target: T3, Protein skinhead-1 (Caenorhabditis elegans, UniProt P34707); format: functional
T3 sequence (P34707 whole entry): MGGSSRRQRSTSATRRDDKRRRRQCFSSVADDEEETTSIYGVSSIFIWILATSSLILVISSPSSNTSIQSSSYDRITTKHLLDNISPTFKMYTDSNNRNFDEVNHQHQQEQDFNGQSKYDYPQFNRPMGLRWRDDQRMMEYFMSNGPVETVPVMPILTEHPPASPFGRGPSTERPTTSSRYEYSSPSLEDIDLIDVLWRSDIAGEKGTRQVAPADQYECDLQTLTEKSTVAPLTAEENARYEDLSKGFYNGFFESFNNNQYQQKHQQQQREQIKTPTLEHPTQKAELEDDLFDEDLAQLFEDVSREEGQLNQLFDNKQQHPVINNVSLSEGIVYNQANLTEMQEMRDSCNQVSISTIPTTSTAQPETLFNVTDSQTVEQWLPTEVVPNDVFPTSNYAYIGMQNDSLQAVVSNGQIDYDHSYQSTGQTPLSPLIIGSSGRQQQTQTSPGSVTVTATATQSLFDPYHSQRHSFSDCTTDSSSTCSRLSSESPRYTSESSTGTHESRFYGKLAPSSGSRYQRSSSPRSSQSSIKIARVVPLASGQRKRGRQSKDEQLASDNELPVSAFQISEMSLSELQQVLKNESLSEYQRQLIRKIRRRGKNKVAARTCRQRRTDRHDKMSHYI

Paired box protein Pax-8 = Paired box protein Pax-8 (Homo sapiens, UniProt Q06710); experiment: PAX8 transcriptional activity inhibition in RMG-I – RMG-I cells, luciferase, cherry-pick, dose response (AID 687027); format: functional, cell-based;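 note: luciferase reporter driven by Pax8 target thyroperoxidase promoter measured by SteadyGlo luminescence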
[10] = non-specific 3'UTR reporter inhibition in Clone20-Shn3RL – cell-based, Renilla luciferase, cherry-picked, counter-screen for Shn3 inhibitor project, dose response (AID 624133); format: functional
[11] = reduction of Shn3 3'UTR-driven luciferase in osteoblasts – cell-based, Clone20 osteoblasts, firefly luciferase, cherry-picked, dose response (AID 624132); format: functional;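 note: firefly luciferase luminescence from reporter carrying the Shn3 3'UTR in osteoblasts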
[12] = target: T4, Rac GTPase-activating protein 1 (Homo sapiens, UniProt Q9H0H5); experiment: blockers of MgcRacGAP-driven Rac1 GTP hydrolysis – biochemical, ADP Hunter fluorescence, primary and confirmatory, confirmation (AID 624330); format: functional
T4 sequence (Q9H0H5 whole entry): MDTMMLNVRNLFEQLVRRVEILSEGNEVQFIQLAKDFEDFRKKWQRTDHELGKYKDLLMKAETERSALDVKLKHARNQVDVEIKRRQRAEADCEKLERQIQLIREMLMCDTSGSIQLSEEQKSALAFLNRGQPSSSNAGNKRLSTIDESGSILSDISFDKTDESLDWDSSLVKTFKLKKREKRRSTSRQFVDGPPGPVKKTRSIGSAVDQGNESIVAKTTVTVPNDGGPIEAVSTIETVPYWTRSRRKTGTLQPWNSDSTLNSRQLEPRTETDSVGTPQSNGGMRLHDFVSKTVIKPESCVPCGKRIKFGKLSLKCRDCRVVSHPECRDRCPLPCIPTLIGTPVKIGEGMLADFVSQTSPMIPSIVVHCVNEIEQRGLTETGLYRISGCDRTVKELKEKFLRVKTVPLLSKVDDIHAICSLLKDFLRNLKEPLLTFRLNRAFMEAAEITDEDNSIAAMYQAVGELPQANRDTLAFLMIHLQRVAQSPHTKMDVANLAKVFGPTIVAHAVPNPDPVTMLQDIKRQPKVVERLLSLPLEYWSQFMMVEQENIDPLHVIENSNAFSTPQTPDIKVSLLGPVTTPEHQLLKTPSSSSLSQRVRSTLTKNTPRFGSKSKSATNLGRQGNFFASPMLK

FAD-linked sulfhydryl oxidase ALR, sequence (P55789 whole entry): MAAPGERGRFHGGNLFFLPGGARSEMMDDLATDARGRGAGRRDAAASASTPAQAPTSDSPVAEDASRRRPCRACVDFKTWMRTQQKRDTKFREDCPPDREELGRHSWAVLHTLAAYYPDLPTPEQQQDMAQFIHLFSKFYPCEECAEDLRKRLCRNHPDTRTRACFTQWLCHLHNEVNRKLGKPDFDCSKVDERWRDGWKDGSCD
Paired box protein Pax-8, sequence (Q06710 whole entry): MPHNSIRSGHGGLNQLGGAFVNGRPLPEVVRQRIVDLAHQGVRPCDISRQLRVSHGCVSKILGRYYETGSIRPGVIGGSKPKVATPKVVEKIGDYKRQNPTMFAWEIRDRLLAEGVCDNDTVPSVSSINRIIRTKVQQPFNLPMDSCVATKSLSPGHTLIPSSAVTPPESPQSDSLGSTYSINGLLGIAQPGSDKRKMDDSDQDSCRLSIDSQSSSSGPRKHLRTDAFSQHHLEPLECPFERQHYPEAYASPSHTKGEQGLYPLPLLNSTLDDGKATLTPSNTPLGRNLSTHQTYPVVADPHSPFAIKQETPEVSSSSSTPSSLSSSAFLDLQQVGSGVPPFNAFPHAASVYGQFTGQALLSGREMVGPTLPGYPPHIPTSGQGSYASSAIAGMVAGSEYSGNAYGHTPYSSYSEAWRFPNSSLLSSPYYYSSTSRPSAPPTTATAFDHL
Large T antigen, sequence (P03070 whole entry): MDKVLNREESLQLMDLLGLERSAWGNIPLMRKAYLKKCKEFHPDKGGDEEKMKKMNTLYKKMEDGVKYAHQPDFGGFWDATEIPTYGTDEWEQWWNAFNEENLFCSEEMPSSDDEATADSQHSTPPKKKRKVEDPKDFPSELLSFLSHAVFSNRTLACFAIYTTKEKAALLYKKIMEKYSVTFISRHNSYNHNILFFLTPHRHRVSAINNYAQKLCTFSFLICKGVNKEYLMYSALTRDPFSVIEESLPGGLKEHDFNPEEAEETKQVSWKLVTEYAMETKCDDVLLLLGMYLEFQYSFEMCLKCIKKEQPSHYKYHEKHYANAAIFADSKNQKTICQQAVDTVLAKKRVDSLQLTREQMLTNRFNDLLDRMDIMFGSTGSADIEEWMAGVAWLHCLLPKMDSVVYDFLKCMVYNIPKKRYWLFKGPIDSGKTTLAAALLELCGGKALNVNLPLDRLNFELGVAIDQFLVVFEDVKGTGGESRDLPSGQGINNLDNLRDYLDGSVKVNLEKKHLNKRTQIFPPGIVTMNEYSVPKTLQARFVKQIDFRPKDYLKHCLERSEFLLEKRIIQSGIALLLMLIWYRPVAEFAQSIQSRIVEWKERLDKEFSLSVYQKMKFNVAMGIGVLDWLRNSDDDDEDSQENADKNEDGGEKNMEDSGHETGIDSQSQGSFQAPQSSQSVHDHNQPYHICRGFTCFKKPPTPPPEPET
Glyceraldehyde-3-phosphate dehydrogenase, sequence (P04406 whole entry): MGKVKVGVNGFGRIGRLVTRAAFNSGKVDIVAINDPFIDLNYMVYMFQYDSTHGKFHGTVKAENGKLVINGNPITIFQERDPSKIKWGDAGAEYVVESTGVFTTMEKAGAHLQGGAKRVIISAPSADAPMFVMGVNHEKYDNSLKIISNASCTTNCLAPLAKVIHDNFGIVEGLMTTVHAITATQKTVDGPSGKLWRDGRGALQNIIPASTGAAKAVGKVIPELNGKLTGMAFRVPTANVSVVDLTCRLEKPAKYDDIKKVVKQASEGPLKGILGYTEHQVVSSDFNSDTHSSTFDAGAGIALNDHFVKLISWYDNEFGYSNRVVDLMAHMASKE

Structure (SMILES) | AC50 [1] | IC50 (H9c2) | further results
COc1ccc(-c2cc(=O)oc3c(O)c(O)ccc23)cc1 | 1.35 µM (active) |  | IC50 (Large T antigen): 8.81 µM (active)
O=C(COc1ccc(F)cc1Cl)Nc1nc(-c2ccccn2)cs1 |  | > 79 µM (inactive) | EC50 [2]: 41.4 µM (active); EC50 (Streptococcus): 3.29 µM (active); EC50 [3]: 3.74 µM (active); EC50 [4]: 1.57 µM (active); EC50 [5]: 0.751 µM (active)
O=C(COc1ccc(F)cc1)Nc1nc(-c2ccccn2)cs1 |  | 16.1 µM (active) | EC50 (Streptococcus): 16.1 µM (active); EC50 (Streptokinase A): > 150 µM (not active); EC50 [6]: 2.59 µM (active); EC50 [7]: > 150 µM (inactive); EC50 [5]: 7.19 µM (active)
O=C(O)c1cc(S(=O)(=O)Nc2cccc(Cl)c2)ccc1O |  |  | IC50 [8]: > 100 µM (not active)
CC(=O)N1CCN=C1SCc1c(F)cccc1Cl | 0.631 µM (active) |  | 
Cc1cc2ncn(C(=O)c3ccc(F)cc3)c2cc1C | 5.34 µM (active) |  | 
NS(=O)(=O)c1ccc(NS(=O)(=O)c2ccc(O)c(C(=O)O)c2)cc1 |  |  | IC50 [8]: > 100 µM (not active)
O=C(/C=C/Nc1ccccc1)c1ccccc1 |  |  | EC50 [9]: > 260 µM (inconclusive); IC50 (Protein skinhead-1): > 100 µM (inactive)
CN(NC1CC(=O)N(c2ccccc2)C1=O)c1ccccc1 (configuration not stated) | 6.83 µM (active) |  | 
Cc1cc(C)c(C(=O)/C=C/c2cccc3ccccc23)c(O)n1 |  |  | AC50 (Paired box protein Pax-8): 5.27 µM (active); EC50 [9]: 6.62 µM (active)
Cc1cc(C)cc(OCC(=O)Nc2cccc(-c3nnc(-c4ccco4)o3)c2)c1 |  | 9.22 µM (active) | 
Cc1ccc(S(=O)(=O)NN2C(=O)/C(=C/c3cccnc3)SC2=S)cc1 | 4.96 µM (active) |  | 
O=C(NCC1CCCO1)C(c1ccc(F)cc1)N(C(=O)Cn1nnc(-c2ccc(F)cc2)n1)c1cccc(O)c1 (configuration not stated) |  | > 79 µM (inactive) | 
Cc1cccc(N2C(=O)C(Cl)=C(N3CCN(Cc4ccc5c(c4)OCO5)CC3)C2=O)c1 |  |  | IC50 [8]: > 50 µM (inconclusive)
COC(=O)c1ccccc1N=Nc1c(N)n[nH]c1N | 6.65 µM (active) |  | 
c1ccc(CN2CCC(=NNc3nc4ccccc4[nH]3)CC2)cc1 | 2.31 µM (active) |  | 
COC(=O)Oc1ccc(/C=C/C(=O)OC(C)C)cc1OC(=O)OC |  | > 79 µM (inactive) | AC50 [10]: 2.56 µM (active); AC50 [11]: 3.29 µM (active)
CC(C)(C)OC(=O)NCCCCCNC(=O)c1[nH]cnc1C(=O)Nc1ccc(Cl)cc1 |  | > 79 µM (inactive) | 
O=C(c1ccc(-c2nc3ccccc3s2)o1)N1CCN(c2ccccc2O)CC1 |  | > 79 µM (inactive) | 
O=S(=O)(Nc1ccc(N2CCCCC2)cc1)c1ccccc1F | 2.08 µM (active) |  | 
O=C1C(Cl)=C(N2CCN(CCOCCO)CC2)C(=O)N1c1ccc(Cl)nc1 |  |  | IC50 [8]: > 50 µM (inconclusive)

Structure (SMILES) | AC50 [1] | IC50 (H9c2) | further results
O=Cc1ccc(OCc2cccc(C(F)(F)F)c2)cc1O |  | > 79 µM (inactive) | 
Cc1cc(C)cc(N(CCC#N)C(=O)COC(=O)Cn2[nH]c(=O)c3ccccc3c2=O)c1 |  | > 79 µM (inactive) | 
CCCN1CCN(C(=O)CCc2nnc3ccc(N4CCN(c5cccc(OC)c5)CC4)nn23)CC1 |  | > 79 µM (inactive) | 
Cc1ccc(S(=O)(=O)CCC(=O)OCC(=O)Nc2cc(S(=O)(=O)N3CCOCC3)ccc2C)cc1 |  |  | AC50 [10]: 1.76 µM (active); AC50 [11]: 17.8 µM (active)
COc1cc(OC)cc(C(=O)NNC(=O)CCc2nc(O)c3ccccc3n2)c1 |  | 19.6 µM (active) | 
CC(C)CN1C(=O)NC(NS(=O)(=O)c2ccc(N)cc2)(C(F)(F)F)C1=O (configuration not stated) | 0.73 µM (active) |  | 
N#CCC(=O)Nc1ccc(C(=O)Nc2cccnc2)cc1 | 0.87 µM (active) |  | 
Cc1[nH]c(C)c(S(=O)(=O)NCc2ccc(N(C)C)cc2)c1C(=O)N1CCCC1 | 16.1 µM (active) |  | 
Nc1ccc2c(c1)nc(O)c1ccccc12 |  | 8.49 µM (active) | 
CC(=O)Nc1cccc(-c2cc(NC=O)c3ncc(-c4cccc(C(C)=O)c4)n3c2)c1 |  | > 79 µM (inactive) | 
CCN(CC(=O)Nc1c(F)cccc1F)C(=O)CCc1nc(O)c2ccccc2n1 |  | > 79 µM (inactive) | 
COc1ccc(C=NNc2nc3c(=O)n(C)c(=O)n(C)c3[nH]2)cc1 |  | > 79 µM (inactive) | 
C[C@@H]1CN([C@H](C)CO)S(=O)(=O)c2ccc(C#CC3CCCC3)cc2O[C@@H]1CN(C)C(=O)Cc1ccncc1 |  |  | AC50 (Paired box protein Pax-8): 16.5 µM (active)
C[C@@H]1CCCCO[C@@H](CN(C)C(=O)Nc2ccc(C(F)(F)F)cc2)[C@H](C)CN([C@@H](C)CO)C(=O)c2cc(NC(=O)Nc3ccc(C(F)(F)F)cc3)ccc2O1 |  |  | AC50 (Paired box protein Pax-8): 2.31 µM (active)
COc1ccc(Cc2nc3ccccc3n2CC(=O)N/N=C/c2ccc(O)cc2)cc1OC | 0.901 µM (active) |  | IC50 (Large T antigen): > 100 µM (active)
COc1cc(/C=N/NC(=O)CNC(=O)c2ccco2)ccc1O | 3.47 µM (active) |  | IC50 (Large T antigen): 6.31 µM (active); IC50 [12]: 38.5 µM (active)
COc1cc(/C=N/N2C(C)CCCC2C)cc(Br)c1O (configuration not stated) | 0.495 µM (active) |  | 
Cc1nc(C)c(CC(=O)N/N=C/c2ccc(O)cc2)c(O)n1 | 2.17 µM (active) |  | IC50 [12]: 69.6 µM (active)
COc1ccc(F)cc1S(=O)(=O)Nc1cnc2ccccc2c1 |  |  | IC50 [8]: > 10 µM (inconclusive)
COc1cc2c(OC)c3ccoc3nc2cc1O | 0.49 µM (active) |  | IC50 (Large T antigen): 20 µM (active)

From ChEMBL document CHEMBL1201862, “PubChem BioAssay data set” (2004)
